Assay in all cases: relative viability (nuclei count vs DMSO), 5 days (fraction); higher = more cells survive
Compound in the experiment “Mirin + Linsitinib”: N=C1NC(=O)/C(=C/c2ccc(O)cc2)S1 [Mirin] + C[C@]1(O)C[C@@H](c2nc(-c3ccc4ccc(-c5ccccc5)nc4c3)c3c(N)nccn32)C1 [Linsitinib] (partner 1 µM)
The method, boiled down:
(§1)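 A single step with final 0.05% Triton X-100, 1% formaldehyde and 1 ug/ml Hoechst fixed the cells and stained nuclei 5 days after treatment. Lung cancer cell lines in 1536-well plates had been treated by pin tool the day after seeding with one drug alone or a fixed anchor-drug dose plus five library-drug doses (not always all listed) in √10 steps, and nuclei were counted on 4× images. Relative viability is the ratio of nuclei in treated wells to nuclei in vehicle wells, taken as the median of duplicate plates.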

Compound in the experiment “Mirin + Crizotinib”: N=C1NC(=O)/C(=C/c2ccc(O)cc2)S1 [Mirin] + C[C@@H](Oc1cc(-c2cnn(C3CCNCC3)c2)cnc1N)c1c(Cl)ccc(F)c1Cl [Crizotinib] (partner 1 µM)
The procedure, abridged:
as §1

Compound in experiment [1]: CCC1=CN=CN=C1N2CCN(CC2)CC3=NC4=C(N3)C=C(C=C4)C(F)(F)F + Nc1ncn([C@H]2C[C@H](O)[C@@H](CO)O2)c(=O)n1 [Decitabine] (partner 2 µM)
The method, boiled down:
as §1

Compound in experiment [2]: CCn1c(-c2nonc2N)nc2cnc(Oc3cccc(NC(=O)c4ccc(OCCN5CCOCC5)cc4)c3)cc21 + O=C(c1cc(Cc2n[nH]c(=O)c3ccccc23)ccc1F)N1CCN(C(=O)C2CC2)CC1 [Olaparib] (partner 8 µM)
The procedure, abridged:
as §1

On to NCI-H3122, for which the relative viability turned out to be 0.994 with Mirin + Linsitinib (first compound 0.25 µM); 1.04 in the experiment with Mirin + Linsitinib (first compound 0.7906 µM); 1.06 in the experiment with Mirin + Linsitinib (first compound 2.5 µM); 1.15 with Mirin + Linsitinib (first compound 7.906 µM); 1.05 in the experiment with Mirin + Linsitinib (first compound 25 µM); 0.247 with Mirin + Crizotinib (first compound 0.25 µM). For the same cell line, the relative viability amounted to 0.256 with Mirin + Crizotinib (first compound 0.7906 µM); 0.266 in the experiment with Mirin + Crizotinib (first compound 2.5 µM); 0.229 with Mirin + Crizotinib (first compound 7.906 µM); 0.247 with Mirin + Crizotinib (first compound 25 µM); 0.387 in experiment [1] (first compound 0.04 µM); 0.459 in experiment [1] (first compound 0.1265 µM). The relative viability turned out to be 0.418 in experiment [1] (first compound 0.4 µM); 0.452 in experiment [1] (first compound 1.265 µM); 0.351 in experiment [1] (first compound 4 µM); 0.697 in experiment [2] (first compound 0.04 µM); 0.618 in experiment [2] (first compound 0.1265 µM); 0.643 in experiment [2] (first compound 0.4 µM). The relative viability in experiment [2] (first compound 1.265 µM) amounted to 0.607; in experiment [2] (first compound 4 µM), 0.592.

For the cell line PC-3 [JPC-3], the relative viability in the experiment with Mirin + Linsitinib (first compound 0.25 µM) stood at 1.01; with Mirin + Linsitinib (first compound 0.7906 µM) it was 1.03; with Mirin + Linsitinib (first compound 2.5 µM) it was 0.988; in the experiment with Mirin + Linsitinib (first compound 7.906 µM), 1.07; with Mirin + Linsitinib (first compound 25 µM) it was 1.03; with Mirin + Crizotinib (first compound 0.25 µM), 1. In addition, the relative viability was 1.1 in the experiment with Mirin + Crizotinib (first compound 0.7906 µM); 1.02 with Mirin + Crizotinib (first compound 2.5 µM); 1.03 in the experiment with Mirin + Crizotinib (first compound 7.906 µM); 1.11 with Mirin + Crizotinib (first compound 25 µM); 0.779 in experiment [1] (first compound 0.1265 µM); 0.706 in experiment [1] (first compound 0.4 µM). Further, the relative viability came out at 0.771 in experiment [1] (first compound 1.265 µM); 0.835 in experiment [1] (first compound 4 µM); 1.13 in experiment [2] (first compound 0.04 µM); 1.14 in experiment [2] (first compound 0.1265 µM); 0.966 in experiment [2] (first compound 0.4 µM); 0.746 in experiment [2] (first compound 1.265 µM). In addition, the relative viability in experiment [2] (first compound 4 µM) is 0.861.

As to PC-14, the relative viability in the experiment with Mirin + Linsitinib (first compound 0.25 µM) turned out to be 0.929; with Mirin + Linsitinib (first compound 0.7906 µM), 0.959; in the experiment with Mirin + Linsitinib (first compound 2.5 µM), 1.03; with Mirin + Linsitinib (first compound 7.906 µM), 0.97; with Mirin + Linsitinib (first compound 25 µM), 1.08; with Mirin + Crizotinib (first compound 0.25 µM), 0.873. The relative viability in the experiment with Mirin + Crizotinib (first compound 0.7906 µM) is 0.893; with Mirin + Crizotinib (first compound 2.5 µM) it was 0.887; with Mirin + Crizotinib (first compound 7.906 µM), 0.945; with Mirin + Crizotinib (first compound 25 µM) it was 1.07; in experiment [1] (first compound 0.04 µM), 0.209; in experiment [1] (first compound 0.1265 µM) it was 0.159. The relative viability was 0.22 in experiment [1] (first compound 0.4 µM); 0.205 in experiment [1] (first compound 1.265 µM); 0.228 in experiment [1] (first compound 4 µM); 0.27 in experiment [2] (first compound 0.04 µM); 0.206 in experiment [2] (first compound 0.1265 µM); 0.287 in experiment [2] (first compound 0.4 µM). The relative viability in experiment [2] (first compound 1.265 µM) came to 0.309; in experiment [2] (first compound 4 µM), 0.326.

For the cell line RERF-LC-KJ, the relative viability with Mirin + Linsitinib (first compound 0.25 µM) came to 0.962; in the experiment with Mirin + Linsitinib (first compound 0.7906 µM), 0.908; in the experiment with Mirin + Linsitinib (first compound 2.5 µM), 0.88; in the experiment with Mirin + Linsitinib (first compound 7.906 µM), 0.896; in the experiment with Mirin + Linsitinib (first compound 25 µM), 0.913; in the experiment with Mirin + Crizotinib (first compound 0.25 µM), 0.845. Also, the relative viability in the experiment with Mirin + Crizotinib (first compound 0.7906 µM) is 0.894; with Mirin + Crizotinib (first compound 2.5 µM), 0.821; with Mirin + Crizotinib (first compound 7.906 µM) it was 0.845; with Mirin + Crizotinib (first compound 25 µM), 0.913; in experiment [1] (first compound 0.04 µM), 0.638; in experiment [1] (first compound 0.1265 µM), 0.627. Further, the relative viability was found to be 0.745 in experiment [1] (first compound 0.4 µM); 0.577 in experiment [1] (first compound 1.265 µM); 0.611 in experiment [1] (first compound 4 µM); 0.898 in experiment [2] (first compound 0.04 µM); 0.84 in experiment [2] (first compound 0.1265 µM); 0.759 in experiment [2] (first compound 0.4 µM). Besides, the figures for the relative viability in experiment [2] (first compound 1.265 µM) and in experiment [2] (first compound 4 µM) were 0.447 and 0.388, respectively.

As for SK-LU-1, the relative viability was 1.14 with Mirin + Linsitinib (first compound 0.25 µM); 1.15 with Mirin + Linsitinib (first compound 0.7906 µM); 1.17 with Mirin + Linsitinib (first compound 2.5 µM); 0.74 with Mirin + Linsitinib (first compound 7.906 µM); 0.566 with Mirin + Linsitinib (first compound 25 µM); 0.888 with Mirin + Crizotinib (first compound 0.25 µM). Also, the relative viability with Mirin + Crizotinib (first compound 0.7906 µM) worked out at 1.05; with Mirin + Crizotinib (first compound 2.5 µM), 1.01; in the experiment with Mirin + Crizotinib (first compound 7.906 µM) it was 0.765; with Mirin + Crizotinib (first compound 25 µM), 0.564; in experiment [1] (first compound 0.04 µM), 0.512; in experiment [1] (first compound 0.1265 µM) it was 0.6. The relative viability in experiment [1] (first compound 0.4 µM) is 0.623; in experiment [1] (first compound 1.265 µM), 0.605; in experiment [1] (first compound 4 µM) it was 0.614; in experiment [2] (first compound 0.04 µM), 0.571; in experiment [2] (first compound 0.1265 µM), 0.305; in experiment [2] (first compound 0.4 µM) it was 0.327. Also, the values for the relative viability in experiment [2] (first compound 1.265 µM) and in experiment [2] (first compound 4 µM) were 0.235 and 0.257, respectively.

Take SK-MES-1: the relative viability in the experiment with Mirin + Linsitinib (first compound 0.25 µM) was found to be 1.06; with Mirin + Linsitinib (first compound 0.7906 µM) it was 1.22; with Mirin + Linsitinib (first compound 2.5 µM) it was 1.18; in the experiment with Mirin + Linsitinib (first compound 7.906 µM), 1.07; with Mirin + Linsitinib (first compound 25 µM) it was 1.26; with Mirin + Crizotinib (first compound 0.25 µM), 1.03. The relative viability with Mirin + Crizotinib (first compound 0.7906 µM) stood at 1.14; with Mirin + Crizotinib (first compound 2.5 µM), 1; with Mirin + Crizotinib (first compound 7.906 µM), 1.04; in the experiment with Mirin + Crizotinib (first compound 25 µM), 1.19; in experiment [1] (first compound 0.04 µM) it was 0.34; in experiment [1] (first compound 0.1265 µM), 0.386. The relative viability in experiment [1] (first compound 0.4 µM) is 0.373; in experiment [1] (first compound 1.265 µM), 0.372; in experiment [1] (first compound 4 µM), 0.361; in experiment [2] (first compound 0.04 µM), 0.772; in experiment [2] (first compound 0.1265 µM), 0.721; in experiment [2] (first compound 0.4 µM), 0.656. In addition, the relative viability in experiment [2] (first compound 1.265 µM) is 0.568; in experiment [2] (first compound 4 µM), 0.483.

On to SW 1573, for which the relative viability with Mirin + Linsitinib (first compound 0.25 µM) was 0.815; in the experiment with Mirin + Linsitinib (first compound 0.7906 µM), 0.728; with Mirin + Linsitinib (first compound 2.5 µM), 0.79; in the experiment with Mirin + Linsitinib (first compound 7.906 µM), 0.731; in the experiment with Mirin + Linsitinib (first compound 25 µM), 0.648; with Mirin + Crizotinib (first compound 0.25 µM), 0.681. Moreover, the relative viability came out at 0.643 in the experiment with Mirin + Crizotinib (first compound 0.7906 µM); 0.838 in the experiment with Mirin + Crizotinib (first compound 2.5 µM); 0.86 with Mirin + Crizotinib (first compound 7.906 µM); 0.624 in the experiment with Mirin + Crizotinib (first compound 25 µM); 0.471 in experiment [1] (first compound 0.04 µM); 0.425 in experiment [1] (first compound 0.1265 µM). Further, the relative viability came to 0.57 in experiment [1] (first compound 0.4 µM); 0.378 in experiment [1] (first compound 1.265 µM); 0.478 in experiment [1] (first compound 4 µM); 0.594 in experiment [2] (first compound 0.04 µM); 0.4 in experiment [2] (first compound 0.1265 µM); 0.287 in experiment [2] (first compound 0.4 µM). In addition, the relative viability amounted to 0.24 in experiment [2] (first compound 1.265 µM) and 0.183 in experiment [2] (first compound 4 µM).

For the origin of these results see the supplement of paper PMC10307832.
